From patent US11091749B2, “Deimmunized lysostaphin and methods of use” (TRUSTEES OF DARTMOUTH COLLEGE, priority 2014, dated 2021)
Where two headings read alike, the source gives them in different places. Where no end group is shown, it is not given here.

Assays:
Test in all cases: MHC II competition binding assay
DRB1*0101 = molecular target: T1, DRB1*0101 (Homo sapiens, UniProt P01903+P01911, A100R/D57E/F55L/F60I/F76Y/I96L/L162R/M171V/P40L/Q125E/R42F/V115G/Y59C)
T1 construct: purchased Benaroya Research Institute (Seattle, Wash.)
Procedure: (§1) MHC Binding Assays. MHC II competition binding assays were performed using a 384-well high throughput assay as previously described (Salvat, et al. (2014) supra). Binding assays were performed for the eight alleles: DRB1*0101, 0301, 0401, 0701, 0801, 1101, 1301, and 1501. Briefly, 100 nM biotinylated control peptides composed of known peptide antigens for each MHC II allele were incubated in polypropylene 384-well plates with 50 nM purified recombinant MHC II protein and serial dilutions of LST or variant peptide fragments (100 μM to 10 nM). Peptide-MHC II complexes were captured from equilibrated solutions using the conformation specific anti-HLA-DR antibody L243 coated on high binding ELISA plates. Bound control peptide was quantified using the DELFIA streptavidin-Europium conjugate and time resolved fluorescence (SpectraMax Gemini Fluorescence Microplate Reader).

DRB1*0301 = molecular target: T2, DRB1*0301 (Homo sapiens, UniProt P01903+P01911, A100K/A102G/A103R/A169T/F55Y/I96L/K41T/L162R/M171V/P40S/Q125H/Q178H/Q39Y/R42S/S66N/T106N/T262R/W38E/Y61H)
T2 construct: purchased Benaroya Research Institute (Seattle, Wash.)
Procedure: as §1

DRB1*0401 = molecular target: T3, DRB1*0401 (Homo sapiens, UniProt P01903+P01911, A100K/A169T/F76Y/I96L/K127E/L162R/M171V/N62H/P40V/Q125Y/R42H/S133A/S149N/S66Y/V115G/V209L/W38E)
T3 construct: purchased Benaroya Research Institute (Seattle, Wash.)
Procedure: as §1

DRB1*0701 = DRB1*0701 (Homo sapiens, UniProt P01903+P01911, A100R/A102G/A103Q/D57E/D86V/E43K/F76Y/K127E/L162R/M171V/P40G/Q125H/Q99D/R33Q/R42Y/R54Q/S133A/S66F/T210M/V115G/Y107V/Y59L/Y89S)
Procedure: as §1

DRB1*0801 = DRB1*0801 (Homo sapiens, UniProt P01903+P01911, A100R/A103L/A169T/D86S/F76Y/H45Y/I96F/K41T/L162R/M171V/P40S/Q125H/Q178H/Q39Y/Q99D/R218S/R42G/S66Y/V115G/W38E)
Procedure: as §1

DRB1*1101 = DRB1*1101 (Homo sapiens, UniProt P01903+P01911, A100R/A169T/A87E/I96F/K41T/L162R/M171V/P40S/Q125H/Q178H/Q39Y/Q99D/R42S/S66Y/T262R/V115G/W38E)
Procedure: as §1

DRB1*1301 = DRB1*1301 (Homo sapiens, UniProt P01903+P01911, A100E/A169T/K41T/L162R/M171V/P40S/Q125H/Q178H/Q39Y/Q99D/R42S/S66N/T262R/W38E/Y61H)
Procedure: as §1

DRB1*1501 = molecular target: T4, DRB1*1501 (Homo sapiens, UniProt P01903+P01911)
T4 construct: purchased Benaroya Research Institute (Seattle, Wash.)
Procedure: as §1, with “MHC II competition binding assays were performed using a 384-well high throughput assay as previously described (Salvat, et al. (2014) supra). Binding assays were performed for the eight alleles: DRB1*0101, 0301, 0401, 0701, 0801, 1101, 1301, and 1501.” left out

[1] = synthetic peptide competing with biotinylated control peptide, read-out: IC50 0101
[2] = synthetic peptide competing with biotinylated control peptide, read-out: IC50 0301
[3] = synthetic peptide competing with biotinylated control peptide, read-out: IC50 0401
[4] = synthetic peptide competing with biotinylated control peptide, read-out: IC50 0701
[5] = synthetic peptide competing with biotinylated control peptide, read-out: IC50 1501
[6] = synthetic peptide competing with biotinylated control peptide, read-out: IC50 0801

Substance: HLHFQRMVGDFSNPTAQ [Peptide 21_22]
- IC50 (DRB1*0101): < 0.01 µM
- IC50 (DRB1*0301): 77.4 µM
- IC50 (DRB1*0401): < 0.01 µM
- IC50 (DRB1*0701): > 250 µM
- IC50 (DRB1*0801): 210 µM
- IC50 (DRB1*1101): 28.5 µM
- IC50 (DRB1*1301): > 250 µM
- IC50 (DRB1*1501): < 0.01 µM

Substance: HLHFQRMVGSFSNPTAQ [Peptide N121G]
- IC50 (DRB1*0101; DRB1*0101, read-out: IC50): < 0.01 µM
- IC50 (DRB1*0301; DRB1*0301, read-out: IC50): > 250 µM
- IC50 (DRB1*0401; DRB1*0401, read-out: IC50): 6.13 µM
- IC50 (DRB1*0701; DRB1*0701, read-out: IC50): 17.4 µM
- IC50 (DRB1*0801; DRB1*0801, read-out: IC50): > 250 µM
- IC50 (DRB1*1101; DRB1*1101, read-out: IC50): 6.41 µM
- IC50 (DRB1*1301; DRB1*1301, read-out: IC50): > 250 µM
- IC50 (DRB1*1501): < 0.01 µM

Substance: HLHFQRMVNDFSNPTAQ [Peptide S122D]
- IC50 (DRB1*0101): < 0.01 µM
- IC50 (DRB1*0301): 9.42 µM
- IC50 (DRB1*0401): < 0.01 µM
- IC50 (DRB1*0701): > 250 µM
- IC50 (DRB1*0801): 150 µM
- IC50 (DRB1*1101): < 0.01 µM
- IC50 (DRB1*1301): > 250 µM
- IC50 (DRB1*1501): < 0.01 µM

Substance: HLHFQRMVNSFGNPTAQ [Peptide S124G]
- IC50 (DRB1*0101; DRB1*0101, read-out: IC50): < 0.01 µM
- IC50 (DRB1*0301; DRB1*0301, read-out: IC50): > 250 µM
- IC50 (DRB1*0801; DRB1*0801, read-out: IC50): > 250 µM
- IC50 (DRB1*1301; DRB1*1301, read-out: IC50): > 250 µM
- IC50 (DRB1*1501; DRB1*1501, read-out: IC50): < 0.01 µM

Substance: HLHFQRMVNSFSNPTAQ [Design C5WT]
- IC50 (DRB1*0301; DRB1*0301, read-out: IC50): > 250 µM
- IC50 (DRB1*0401; DRB1*0401, read-out: IC50): 0.05 µM
- IC50 (DRB1*0701; DRB1*0701, read-out: IC50): 15.2 µM
- IC50 (DRB1*0801; DRB1*0801, read-out: IC50): 22 µM
- IC50 (DRB1*1101; DRB1*1101, read-out: IC50): < 0.01 µM
- IC50 (DRB1*1301; DRB1*1301, read-out: IC50): > 250 µM
- IC50 (DRB1*1501; DRB1*1501, read-out: IC50): < 0.01 µM

Substance: HLHFQTMVNDFGNPTAQ [Peptide 182224]
- IC50 (DRB1*0101): 7.43 µM
- IC50 (DRB1*0301): 133 µM
- IC50 (DRB1*0401): 7.52 µM
- IC50 (DRB1*0701): > 250 µM
- IC50 (DRB1*0801): > 250 µM
- IC50 (DRB1*1101): 14.1 µM
- IC50 (DRB1*1301): > 250 µM
- IC50 (DRB1*1501): 0.42 µM

Substance: HLHFQTMVNDFSNPTAQ [Peptide 18_22]
- IC50 (DRB1*0101): < 0.01 µM
- IC50 (DRB1*0301): 28.2 µM
- IC50 (DRB1*0401): < 0.01 µM
- IC50 (DRB1*0701): 111 µM
- IC50 (DRB1*0801): > 250 µM
- IC50 (DRB1*1101): < 0.01 µM
- IC50 (DRB1*1301): > 250 µM
- IC50 (DRB1*1501): < 0.01 µM

Substance: HLHFQTMVNSFSNPTAQ [Peptide R118T]
- IC50 (DRB1*0101): < 0.01 µM
- IC50 (DRB1*0301): 68.4 µM
- IC50 (DRB1*0401): < 0.01 µM
- IC50 (DRB1*0701): 23.1 µM
- IC50 (DRB1*0801): 57.7 µM
- IC50 (DRB1*1101): < 0.01 µM
- IC50 (DRB1*1301): > 250 µM
- IC50 (DRB1*1501): < 0.01 µM

Substance: Leu83Met: full-length lysostaphin single point mutant
- binder class DRB1*0101 (DRB1*0101): weak (weak if an IC50 value was in the 1-10 μM range)
- binder class DRB1*0301 (DRB1*0301): non-binder (All peptides above 10 μM were considered non-binders)
- binder class DRB1*0701 (DRB1*0701): moderate (moderate if an IC50 value was in the 0.1-1 μM range)
- fold decrease in binding vs wild-type peptide, 0701 (DRB1*0701): two-fold
- fold decrease in binding vs wild-type peptide, 0801 (DRB1*0801): approximately five-fold
- fold reduction in binding vs wild-type peptide, 1101 (DRB1*1101): ten-fold
- binder class DRB1*1301 (DRB1*1301): weak (weak if an IC50 value was in the 1-10 μM range)
- binder class DRB1*1501 (DRB1*1501): moderate (moderate if an IC50 value was in the 0.1-1 μM range)

Substance: Lys46His: full-length lysostaphin single point mutant
- fold decrease in binding vs wild-type peptide, 0101 (DRB1*0101): two-fold

Substance: SAQWLGNYKKGYGYG [Design N12G]
- IC50 (DRB1*0101; [1]): < 0.01 µM
- IC50 (DRB1*0301; [2]): > 250 µM
- IC50 (DRB1*0401; [3]): > 250 µM
- IC50 (DRB1*0701; [4]): > 250 µM
- IC50 (DRB1*1301; synthetic peptide competing with biotinylated control peptide, read-out: IC50 1301): > 250 µM
- IC50 (DRB1*1501; [5]): > 250 µM

Substance: SAQWLNHYKKGYGYG [Design N13H]
- IC50 (DRB1*0101; [1]): > 250 µM
- IC50 (DRB1*0301; [2]): > 250 µM
- IC50 (DRB1*0401; [3]): > 250 µM
- IC50 (DRB1*0701; [4]): > 250 µM
- IC50 (DRB1*0801; [6]): > 250 µM
- IC50 (DRB1*1501; [5]): > 250 µM

Substance: SAQWLNNYKKGYGYG [Design C1WT]
- IC50 (DRB1*0301; [2]): > 250 µM
- IC50 (DRB1*0401; [3]): > 250 µM
- IC50 (DRB1*0701; [4]): > 250 µM
- IC50 (DRB1*0801; [6]): 13.7 µM
- IC50 (DRB1*1501; [5]): 101 µM

Substance: Tyr93His/Lys95Glu/Ile99Gln: cluster 4 synthetic peptide with three mutations (Table 15) (DHVEAGQQIGWSGSTGY)
- binder class DRB1*0101 (DRB1*0101): weak or non-binder
- binder class DRB1*1501 (DRB1*1501): weak/non-binder

Substance: Tyr93His/Lys95Glu: cluster 4 synthetic peptide with Tyr93His and Lys95Glu (Table 15) (DHVEAGQIIGWSGSTGY)
- binder class DRB1*0101 (DRB1*0101): moderate (moderate if an IC50 value was in the 0.1-1 μM range)
